# Results as given in PMC8156934, “Photophysical Study and Biological Applications of Synthetic Chalcone-Based Fluorescent Dyes” (Molecules, 2021).
# How the values were obtained:
# [1] = 0.1 M NaOH, used as standard; no reference given; cited from earlier work
# HepG2 = test: Cell viability MTT assay, cancer cells; assay type: cell-based; settings: Homo sapiens; HepG2, 24 h, MTT; read-out: IC50
# Description: (§1) For fluorescence imaging of living cells, human embryonic kidney 293 (HEK-293, ATCC) and human hepatoma cancer cell (HepG2, ATCC) were cultured in Dulbecco′s Modified Eagle′s Medium (DMEM, HyClone) supplemented with 10% Fetal Bovine Serum (FBS, Gibco, Carlsbad, CA, USA) and 1% Penicillin/Streptomycin Solution 100X (Corning, Corning, NY, USA). All cells were cultured in a humidified incubator at 37 °C with 5% CO2. HEK-293 and HepG2 cells, approximately 1 × 10^4 cells, were seeded on 8-well chambered cover glasses (LabTek, Nunc, Carlsbad, CA, USA) and incubated in complete medium for 24 h. After that, the cells were treated with 5 μM stock solutions of 3a–f in DMSO/cell culture medium containing 10% FBS (0.25% DMSO), for 0, 1, 3, and 6 h. Then, the cells were washed twice with 0.01 M PBS before being visualized under a Laser-Scanning Confocal Microscope (Nikon A1Rsi) with a 60× oil immersion objective lens and living cell workstation with the excitation channel at 488 nm.
# (§2) The cells were seeded on a 96-well plate, approximately 7 × 10^3 cells per well, and incubated in complete medium for 24 h. After that, the cells were treated with 0, 1, 5, 10, 20, and 50 μM of chalcones 3a–f, and culturing continued for 24 h. After incubation, the cells were washed three times with 10 mM PBS and treated with […] of methylthiazolyldiphenyl-tetrazolium bromide (MTT reagent, 0.5 mg mL^−1, Sigma-Aldrich, St. Louis, MO, USA) for 2–3 h. After medium removal, DMSO was added to dissolve the formazan product, and cell viability was determined by UV–Vis absorption of the resulting formazan at a wavelength of 560 nm in a microplate reader (BMG Labtech/SPECTROstar Nano, Ortenberg, Germany).
# HEK-293 = test: Cell viability MTT assay, normal cells; assay type: cell-based; settings: Homo sapiens, HEK293; HEK-293, 24 h, MTT; read-out: IC50
# Description: as §1, §2
# E. coli 780 = test: Antibacterial activity test (MIC, MBC, growth curve); assay type: cell-based, Escherichia coli
# Description: (§3) All bacteria strains were obtained from the Thailand Institute of Scientific and Technological Research (TISTR). The antibacterial activity of chalcones 3a–f was determined by the minimal inhibitory concentration (MIC) and the minimal bactericidal concentration (MBC) against the Gram-positive (S. aureus 1466, TISTR 1466) and Gram-negative (E.coli 780, TISTR 780) bacteria. The stocks of chalcones 3a–f (0.60 mg/mL) were serially diluted in Muller–Hinton (MH) broth to obtain concentrations in the range of 250–1000 µM. The solutions of chalcones 3a–f (100 µL) at different concentrations were added in the culture of the tested bacteria (100 µL) at a concentration of 1 × 10^6 colony-forming units/mL (CFU/mL) in MH broth at 37 °C with shaking at 80 rpm. The bacterial numbers were determined by measuring the optical density at 600 nm by a UV–Vis spectrometer. […] To determine the MBC values, the bacterial cultures (10 µL) containing the solutions of chalcones 3a–f at MIC and three higher concentrations were dropped on MH agar plates.
# [2] = Photo-stability test (photobleaching under 250 W blue light); assay type: physicochemical; settings: DMSO, 250 W blue light (380–500 nm), after 30 min irradiation
# Description: Chalcones 3a–f were dissolved in DMSO at the final concentration of 1 × 10^−6 M for measuring absorption and emission intensity. Then, 3a–f were irradiated at 250 W (blue-lamp) at a distance of 75 cm. The UV–Visible absorption and fluorescence spectra of the solutions were measured at different time points including 0, 1, 5, 10, 15, 20, and 30 min. Photo-stability was reported in terms of photobleaching absorption and emission (%) calculated from the change of absorption and emission intensity at the absorption and emission maxima before and after irradiation.
# S. aureus 1466 = test: Antibacterial activity test (MIC, MBC, growth curve); assay type: cell-based, Staphylococcus aureus
# Description: as §3
# [3] = Photophysical properties (UV–Vis absorption and fluorescence spectra); assay type: physicochemical; settings: for λabs absorption maximum wavelength / ∆λ stokes shifts (λem − λabs) / λem emission maximum wavelength / Φf fluorescence quantum yields: 2 µM; for λem emission maximum wavelength: excited at the maximum absorption wavelength; for Φf fluorescence quantum yields: n = 3, relative to fluorescein in 0.1 M NaOH
# Description: All UV–Vis absorption and fluorescence spectra were recorded on a UV–Vis Spectrophotometer (Agilent Technologies Cary 300, Santa Clara, CA, USA) and a Spectrofluorometer (PerkinElmer LS55, Waltham, MA, USA), respectively. In both experiments, the stock solutions of chalcones 3a–f were prepared as 0.5 mM in DMSO. The appropriate amount of the stock solution was added to DMSO, MeOH, and 0.01 M PBS buffer (pH 7.4) with 3% Tween 80 (3 mL) to obtain the final concentration of 2 µM in the testing solutions. For fluorescence experiments, the emission spectra were recorded at the maximum absorbance wavelength of each compound. The fluorescent quantum yields (Φf) were calculated relative to fluorescein in 0.1 M NaOH as a standard (Φf = 0.95).
# [4] = pH effect on fluorescence emission; assay type: physicochemical; settings: pH range from 2 to 12, 2 µM, 3% Tween 80
# Description: Chalcones 3a–f (2 µM) were dissolved in commercial pH 1–12 buffers purchased from Merck (St. Louis, MO, USA) (glycine/NaCl/HCl for pH 1, citric acid/NaOH/HCl for pH 2–6, Na2HPO4/KH2PO4 for pH 7, boric acid/ KCl/NaOH for pH 8–11, Na3PO4/NaOH for pH 12) in the presence of Tween 80 (3% w/w). The actual pH values of the final buffer solutions were measured by a pH meter. The resulting solutions were examined by a Spectrofluorometer (PerkinElmer LS55) at the maximum absorbance wavelength of each compound.
compound,measurement,setting,value
O=C1OC2(c3ccc(O)cc3Oc3cc(O)ccc32)c2ccccc21 [fluorescein],Φf fluorescent quantum yield of the standard,[1],0.95
CN(C)c1ccc(/C=C/C(=O)c2ccc(N(C)C)cc2)cc1 [3d],IC50,HepG2,56 µM
same,IC50,HEK-293,> 100 µM
same,bacterial growth (OD600 growth curve),"E. coli 780; E. coli 780, increasing concentration, 24 h",significantly inhibited
same,MBC,"E. coli 780; Escherichia coli, E. coli 780, mean ± SD of three independent experiments, read-out: MBC",375 ± 0.01 µM
same,MIC,"E. coli 780; Escherichia coli, E. coli 780, mean ± SD of three independent experiments, read-out: MIC",250 ± 0.01 µM
same,% photobleaching of absorbance,[2],51%
same,% photobleaching of fluorescence,[2],30%
same,bacterial growth (OD600 growth curve),"S. aureus 1466; S. aureus 1466, increasing concentration, 24 h",significantly inhibited
same,MBC,"S. aureus 1466; Staphylococcus aureus, S. aureus 1466, mean ± SD of three independent experiments, read-out: MBC",1000 ± 0.01 µM
same,MIC,"S. aureus 1466; Staphylococcus aureus, S. aureus 1466, mean ± SD of three independent experiments, read-out: MIC",250 ± 0.01 µM
same,ε molar absorptivity,[3]; DMSO,46000 M⁻¹ cm⁻¹
same,λabs absorption maximum wavelength,[3]; DMSO,422 nm
same,∆λ stokes shifts (λem − λabs),[3]; DMSO,94 nm
same,λem emission maximum wavelength,[3]; DMSO,516 nm
same,Φf fluorescence quantum yields,[3]; DMSO,0.10 ± 0.02
same,ε molar absorptivity,[3]; MeOH,37000 M⁻¹ cm⁻¹
same,λabs absorption maximum wavelength,[3]; MeOH,423 nm
same,∆λ stokes shifts (λem − λabs),[3]; MeOH,132 nm
same,λem emission maximum wavelength,[3]; MeOH,555 nm
same,Φf fluorescence quantum yields,[3]; MeOH,0.024 ± 0.015
same,ε molar absorptivity,[3]; PBS (3%w/w tween 80),44000 M⁻¹ cm⁻¹
same,λabs absorption maximum wavelength,[3]; PBS (3%w/w tween 80),422 nm
same,∆λ stokes shifts (λem − λabs),[3]; PBS (3%w/w tween 80),120 nm
same,λem emission maximum wavelength,[3]; PBS (3%w/w tween 80),542 nm
same,Φf fluorescence quantum yields,[3]; PBS (3%w/w tween 80),0.17 ± 0.03
same,fluorescence emission,[4],Higher emission peaks
